Article PMC8757871, “Bridging the Antimicrobial Activity of Two Lactoferricin Derivatives in E. coli and Lipid-Only Membranes” (Frontiers in Medical Technology, 2021)
Like-named read-outs stand apart in the source and are kept apart here.

What was measured:
E. coli K12 5K [1] = test: ζ-potential estimate of the maximum number of surface-adsorbed AMPs; format: cell-based, Escherichia coli; conditions: for fraction of cell associated peptides that do not enter inner compartments: at bacteria inhibition levels of 10%; for NPmax/NB, ratio of surface-adsorbed to cell-partitioned AMPs (upper boundary): at the MIC
Procedure: DLS and ζ-potential measurements were carried out with a Zetasizer Nano ZSP (Malvern Panalytical, Malvern, UK). E. coli suspensions were incubated with a given AMP concentration at 37°C for 1 h prior to each measurement. […] Control samples (no AMPs) were suspended and incubated in buffer alone. […] Because of the high conductivity of PBS, the electrode voltage was set to 4 V for ζ-potential measurements to keep currents below 1 mA. Further, measurements were paused for 180 s between individual runs. This prevented Joule heating leading to sample denaturation and electrode blackening. Experiments were repeated three times on different preparations, each consisting of at least six measurements. Reported ζ-potential values are given by the median of the corresponding measurements (i.e., from at least 18 values) and errors were derived using the median absolute deviations.
Remembering that ζ-potential values are sensitive only to the charges exposed to the outside of any particle, including bacteria, we can obtain upper boundaries for the number of surface adsorbed peptides. Given the high abundance of lipopolysaccharides (LPS) in the outer leaflet (about 70–90 vol%) of Gram-negative bacteria, as compared to other charged lipid species such as PG and CL (<2 vol%) and membrane proteins (7–20 vol%) ([40]), it is justified to assume that LPS dominates the surface potential of E. coli. Then, following considerations put forth for peptides partitioning in liposomes ([31], [41]), the ratio of ζ-potential values in the presence and absence of AMPs is […]
(9) ζ/ζ0≈σ/σ0≃(S0/S)∑iNizi+NPzP/NLPS0zLPS, where (σ, σ0) and (S, S0) are the corresponding surface charge densities and cell surface areas, respectively. Further, NLPS0 is the initial number of LPS molecules in the outer leaflet, with a nominal charge zLPS ≃ −6 ([42]); NP is the number of surface adsorbed AMPs of nominal charge zP ≃ +5 ([20]); and ∑iNizi=NLPSzLPS+NPGzPG+NCLzCL considers anionic lipids that translocate into the outer leaflet due to AMP activity ([3], [6], [18]). This term also accounts for a possible loss of LPS molecules in the outer leaflet due to vesiculation processes ([25]). Note that Equation (9) is only valid for |ζ| ≤ 25 mV, in which range ζ ∝ σ ([43]). […] Rearranging Equation (9) leads to […]
(13) NPmax/NLPS0≈(zLPS/zP)(ζ/ζ0-1), where NPmax is the upper boundary of surface adsorbed peptides. […] For example, using DLS, we measured a hydrodynamic diameter of E. coli K12 2RH = 980 ± 30 nm, from which we calculate S0≃4.5×10^6 nm^2, approximating the bacteria's shape with a cylinder of radius r and length l using RH2≃r^2/2+l^2/12 and r ~ 400 nm ([47]). […]

E. coli K12 5K [2] = format: cell-based, Escherichia coli; conditions: MIC = IC99.9, 2 h incubation with AMP in PBS at 37°C, then growth in LB about 20 h
Procedure: Colonies of E. coli K12 5K (courtesy of Günther Koraimann, University of Graz) were grown in LB-agar plates at 37°C. Overnight cultures (ONCs) were prepared by inoculating a single colony in 3 ml LB-medium in sterile polypropylene conical tubes (15 ml), enabling bacterial growth under aerobic conditions for 12−16 h in a shaking incubator at 37°C. Main cultures were prepared by suspending an aliquot of the ONCs in 10 ml LB-medium in sterile polypropylene conical tubes (50 ml) and harvested in the middle of the exponential growth phase. Bacteria were then immediately washed twice and re-suspended in nutrient-free and isotonic phosphate-buffered saline (PBS) solution (phosphate buffer 20 mM, NaCl 130 mM) at pH 7.4. Bacterial concentration was measured via turbidity measurements. The optical density at λ = 600 nm (OD600) was acquired with the spectrophotometer Thermo Spectronic Genesys 20 (Thermo Fisher Scientific, Waltham, MA), where OD600 = 1 corresponds approximately to 8 ×10^8 CFU/ml (where CFU is colony forming units).
The antimicrobial activity of the AMPs on E. coli was tested using a modified susceptibility microdilution assay ([30]) in the bacterial concentration range of 5 × 10^5 to 10^9 CFU/ml. Bacterial suspensions were incubated at a given AMP concentration for 2 h at 37°C (control samples were incubated in buffer only). Then, cell growth was monitored upon addition of double concentrated LB-medium for about 20 h using a Bioscreen C MBR (Oy Growth Curves Ab, Helsinki, Finland).
This allowed us to quantify the number density of surviving bacteria from the onset of the exponential growth via the relation Δtexp = a + blog(ncell), where a and b were obtained from a calibration curve in absence of AMPs (Supplementary Figure 1B). Then, the inhibited bacterial fraction IF=1-ncell([P])/ncell0 was calculated for different values of peptide concentration, [P], and of bacterial number density of the control sample, ncell0 . Following the so-called “equi-activity” analysis ([27], [31]), we further interpolated IF using a Gompertz function, which enabled us to derive inhibitory peptide concentrations ICx, where x is the corresponding inhibited bacterial fraction (Supplementary Figure 1C). By convention, the standard MIC is defined at inhibition levels of 99.9%, i.e., IC99.9 ≡ MIC. Additional control experiments were performed in order to test whether DMSO and acetic acid, used in buffer solutions of both peptides (see above), affect bacterial growth. In particular, the microdilution assays were repeated with LF11-215 dissolved in pure PBS, yielding equivalently delayed onsets of bacterial growth.

Row | Substance | fraction of cell associated peptides that do not enter inner compartments (E. coli K12 5K [1]) | NPmax/NB, ratio of surface-adsorbed to cell-partitioned AMPs (upper boundary) (E. coli K12 5K [1]) | MIC (E. coli K12 5K [2]; ncell = 10^6 CFU/ml) [µM] | MIC (E. coli K12 5K [2]; ncell = 10^9 CFU/ml) [µM]
1 | H-FWRIRIRR-NH2 [LF11-215, H-FWRIRIRR-NH2] | ~ 5% | about 1% | 13.7 ± 0.4 | 158 ± 2
2 | H-PFFWRIRIRR-NH2 [LF11-324, H-PFFWRIRIRR-NH2] | ~ 18% | ~5% | 11.1 ± 0.6 | 57 ± 2
